The series is described as follows: gradient 5% acetonitrile 3 min, to 50% in 2 min, to 85% in 15 min, held 3 min, 100 µL/min. To be noted: column: Zorbax Extend-C18 2.1 x 50 mm; eluents: water / acetonitrile, 0.1% formic acid. The method, boiled down:
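Standards, all pure, were combined into mixtures of ~100 molecules and run at 100 μL/min on a Zorbax Extend-C18 column (2.1 × 50 mm, 1.8 μm) with water and acetonitrile, each containing 0.1% formic acid. A coupled quadrupole time-of-flight mass spectrometer operated in positive and negative ionization mode. Retention time values come from computationally picked adduct peaks, each inspected manually.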
Molecule `CN(C)S(=O)(=O)c1ccc(-c2nnc(C(=O)NCc3cccc(Cl)c3)o2)cc1` showed an RP-LC retention time of 969 s.

`Cc1ccccc1CN1N=C(C(=O)N2CCCCC2)S(=O)(=O)c2ccccc21` showed an RP-LC retention time of 1010 s. For `CCOc1ccccc1N1CCN(C(=O)c2sc3ncccc3c2-n2cccc2)CC1` the value was 1040 s. In turn, `COc1ccc(C2C(C(=O)N3CCOCC3)=C(C)NC3=C2C(=O)CCC3)cc1Br` (stereo unspecified) showed an RP-LC retention time of 653 s. For `COc1cc(NC(=O)C2CCN(c3nccnc3Sc3ccccc3)CC2)cc(OC)c1` the value was 1040 s; for `COc1ccc(-c2noc(C3CC(=O)N(c4ccc(OC)c(OC)c4)C3)n2)cc1OC` (stereo unspecified), 743 s; for `Cc1ccc2nc(Cl)c3cc(C(=O)N4CCN(c5ccccn5)CC4)sc3c2c1`, 719 s. The molecule `CCOc1ncccc1CNS(=O)(=O)c1cccnc1` yielded an RP-LC retention time of 661 s.

For `C=CCNC(=O)c1cn(-c2cc(-c3nc(C(C)(C)C)no3)ccn2)cn1`, the RP-LC retention time turned out to be 879 s. In the case of `O=C(NC1CC1)C1CCN(c2nc3ccc(-c4ccsc4)nc3s2)CC1`, the RP-LC retention time turned out to be 809 s. Turning to `O=C(Cn1ccnc1-c1ccnc(N2CCSCC2)c1)NC1CCCC1`, the RP-LC retention time is 619 s.

Turning to `Cc1ccc(S(=O)(=O)N2CCC(c3nc(C(=O)N(C)C)c(C)o3)CC2)cc1C`, the RP-LC retention time came out at 878 s. `O=C(NCCc1cccs1)C1CCN(c2cc(N3CCCCC3)ncn2)CC1` returned an RP-LC retention time of 672 s.

Turning to `O=C(NCCC1CCN(S(=O)(=O)c2ccc(F)cc2)CC1)NC1CCCCC1`, the RP-LC retention time amounted to 890 s. The result for `Cn1c(CN2CCN(C(=O)COc3ccc(F)cc3)CC2)nc2ccccc21` reads 581 s; that for `CCc1ccc2[nH]c3c(c(=O)c2c1)CN(CC(=O)NCc1ccc(Cl)cc1)CC3`, 656 s. On to `CC(C)NC(=O)c1cnn2c(-c3ccccn3)ccnc12`, for which the RP-LC retention time came out at 718 s. For `COc1ccc(OC)c(NC(=O)CN2C(=O)NC(c3ccc(Cl)cc3)C3=C2COC3=O)c1` (stereo unspecified), the RP-LC retention time was 790 s.

With `CC(=O)Nc1nsc(N2CCC(C(=O)N3CCN(c4cc(C)ccc4C)CC3)CC2)n1`, the RP-LC retention time came out at 820 s. The result for `COCCC(=O)N1CCN(c2nc(CN3CCOCC3)cs2)CC1` reads 686 s; that for `Cn1nnc2cc(CNC(=O)c3ccc(F)cc3)ccc21`, 686 s.

In turn, `CC(C)n1cnc(S(=O)(=O)N2CCCC(C(=O)Nc3cccc(C(F)(F)F)c3)C2)c1` (stereo unspecified) returned an RP-LC retention time of 890 s. The molecule `CC(C)Sc1cc2c(cc1NC(=O)Cc1cccc(F)c1)n(C)c(=O)n2C` came in with an RP-LC retention time of 987 s. The result for `Cc1ccc(Nc2c(-c3ccc(Br)cc3)nc3cnccn23)c(C)c1` reads 1170 s; that for `COc1ccc(OCc2nnc3sc(-c4ccc5ccccc5n4)nn23)cc1`, 1040 s.

Molecule `COc1ccc(-c2cn3c(CC(=O)Nc4ccc5c(c4)OCCO5)csc3n2)cc1OC` had an RP-LC retention time of 684 s. The result for `CC(=O)N1CCc2cc(-c3ccc(C(=O)NCCN4CCCCCC4)cc3)ccc21` reads 576 s; that for `CC(C)c1noc(-c2cc(=O)n(CC(=O)Nc3cccc(F)c3)c3ccccc23)n1`, 1020 s; that for `CN1c2cc(F)ccc2C(=O)NC12CCN(C(=O)c1cccc(F)c1)CC2`, 769 s. For `CC1CCC2(CC1)NC(=O)N(CC(=O)N(C)c1ccccc1)C2=O` (stereo unspecified), the RP-LC retention time was 805 s. For `COCCCNC(=O)C1CCCN(c2nccc(C)n2)C1` (stereo unspecified) the value was 592 s; for `c1ccc2c(c1)OCC(c1nc(-c3ccc(-n4cccn4)nc3)no1)O2` (stereo unspecified), 1090 s. Turning to `CCc1cccc(NC(=O)C2CCN(C(=O)c3ncn4c3COC(c3ccccc3)C4)CC2)c1` (stereo unspecified), the RP-LC retention time is 879 s. The result for `COCCNC(=O)C1CCCN(C(=O)Nc2ccc(NC(=O)Nc3ccccc3)cc2)C1` (stereo unspecified) reads 676 s.

In the case of `CCCCc1ccc(NC(=O)C2CCN(C(=O)C(C)(C)C)CC2)cc1`, the RP-LC retention time was determined as 1020 s. In turn, `CCc1ccc(NC(=O)Cn2cnc3nc4c(cc3c2=O)CCCC4)cc1` returned an RP-LC retention time of 788 s. Regarding `O=C(Cc1ccsc1)N1CCC2(CC1)N=C(c1ccc(Cl)cc1)NO2`, the RP-LC retention time worked out at 865 s.

In the case of `CCOC(=O)C1CCN(C(=O)c2ccc3c(c2)CCCN3S(C)(=O)=O)CC1`, the RP-LC retention time came out at 765 s.

Molecule `CCCNC(=O)C1CCN(c2ccc(SCC(=O)NCc3cccc(C(F)(F)F)c3)nn2)CC1` displayed an RP-LC retention time of 672 s. Molecule `CC(C)(C)c1noc(-c2cccnc2-n2cnc(C(=O)NC3CCCCC3)c2)n1` showed an RP-LC retention time of 771 s. The result for `O=C(NCc1cccc(C(F)(F)F)c1)c1ccc2c(c1)ncn2CCN1CCCC1` reads 618 s; that for `Cc1cc(C)cc(C(=O)Nc2cccn3nc(C4CCC4)nc23)c1`, 1070 s. For the molecule `Cn1nc(C(=O)N2CCCC(C(=O)Nc3ccccc3)C2)c2c1CCN(C(=O)C(C)(C)C)C2` (stereo unspecified), the RP-LC retention time came to 745 s. `COc1ccc(NC(=O)N2CCCC2c2nc(-c3ccccc3OC)no2)c(C)c1` (stereo unspecified) came in with an RP-LC retention time of 809 s. Molecule `COCC1CN(S(=O)(=O)c2ccc(C)c(F)c2)CC12CCNCC2` (stereo unspecified) showed an RP-LC retention time of 643 s. As for `Cc1c(C(=O)N2CCOc3ccc(-c4ccc(N)nc4)cc3C2)ccc(S(C)(=O)=O)c1F`, the RP-LC retention time is 643 s. The result for `Cc1sc(-c2nc(C(C)C)cs2)cc1S(=O)(=O)Nc1ccccc1F` reads 1170 s.

In turn, `Cc1cccc(NC(=O)Cn2ncc3c(N4CCN(c5ccccn5)CC4)ncnc32)c1C` showed an RP-LC retention time of 609 s.

`Cc1nc(-c2ccccc2)sc1C(=O)Nc1nc(-c2ccc(F)cc2)cs1` yielded an RP-LC retention time of 1250 s.

Turning to `CN1C(=O)c2cc(S(=O)(=O)NC3CCCCCC3)ccc2Oc2cccnc21`, the RP-LC retention time worked out at 1000 s. For `CCOC(=O)c1cnc(NC(=O)c2ccc(S(=O)(=O)N3CCCCC3)cc2)s1` the value was 882 s; for `COc1cccc(CNC(=O)c2cn3cccc(C)c3n2)c1OC`, 541 s.

The molecule `CCCn1c(CCNC(=O)c2cccc(Cl)c2)nc2cccnc21` displayed an RP-LC retention time of 639 s. The result for `CCSc1nnc(-c2nn(C)c3c2CN(C(=O)CCc2ccccc2)CC3)n1C` reads 767 s.

As for `Cc1ccc(Nc2c(-c3ccc4c(c3)OCO4)nc3cnccn23)c(C)c1`, the RP-LC retention time stood at 933 s. `C=CCNC(=O)c1sc(Nc2cccc(C)n2)nc1C`: the RP-LC retention time came out at 697 s. The result for `CN1C(=O)Cc2cc(NC(=O)c3cccs3)ccc21` reads 631 s; that for `O=C(O)c1cn(-c2ccc3c(c2)OCO3)nn1`, 645 s. For `Cc1ccc(S(=O)(=O)N2CCC(n3cnnc3C(C)C)CC2)c(C)c1` the value was 784 s. Turning to `CN(C)C(CNC(=O)c1cc(-c2ccc3c(c2)OCCO3)on1)c1ccc(F)cc1` (stereo unspecified), the RP-LC retention time was found to be 681 s. The result for `COC(=O)CNC(=O)N1CCCCC1c1nc(CCOCC2CC2)no1` (stereo unspecified) reads 711 s. The molecule `CCN1c2ccc(F)cc2C(=O)NC12CCN(C(=O)c1ccc(F)c(F)c1)CC2` gave an RP-LC retention time of 822 s. The result for `Cc1noc(-c2ccnc(-n3ncc(C(=O)N4CCOCC4)c3C)c2)n1` reads 693 s; that for `Cc1[nH]c(C(=O)N2CCCC(C(=O)NCc3ccccc3F)C2)c(C)c1C(=O)OC(C)C` (stereo unspecified), 860 s; that for `COc1ccc2c(C)c(C(=O)NCCn3ncccc3=O)oc2c1`, 669 s. With `Cn1c(NC(=O)c2ccc(Cl)cc2)cc(=O)n(C)c1=O`, the RP-LC retention time worked out at 660 s. The result for `COc1cc(C2CC(=O)c3cnc(N4CCN(CCO)CC4)nc3C2)cc(OC)c1OC` (stereo unspecified) reads 559 s; that for `Cc1ccc(S(=O)(=O)N2CCCCC2)cc1-c1nnc(-c2ccc(Cl)cc2)o1`, 1250 s.

Regarding `O=C(NCc1cccs1)c1cc2n(n1)CCCC2`, the RP-LC retention time was determined as 753 s.

In turn, `COc1cccc(C(=O)N2CCN(c3ccc(-c4ccccn4)nn3)CC2)c1OC` returned an RP-LC retention time of 586 s. Take `CN1CCN2c3ncccc3Cc3ccccc3[C@@H]2C1`: the RP-LC retention time was 647 s. For `CCOCCCNCc1ccc(-c2ccccc2F)o1` the value was 672 s; for `COc1ccc(-c2cc3c(=O)n(Cc4ccc(C)cc4C)ccn3n2)cc1OC`, 1020 s; for `CN(C)C(=O)c1ccc(-n2nc(C(F)(F)F)c3c2CCCC3)cc1`, 882 s. The result for `Cc1cc(NC(=O)Cn2cc3c(n2)CCCCC3)ccc1Br` reads 1030 s; that for `C[C@H]1CN(C(=O)c2ccc3ccccc3n2)C[C@@H]1c1nc(-c2ccncc2)no1`, 830 s; that for `COCCc1noc(C2Cc3ccccc3N2C(=O)NCc2ccco2)n1` (stereo unspecified), 807 s. The molecule `CCOc1ccc(C2Cn3nnc(-c4nc(C)no4)c3CO2)cc1` (stereo unspecified) displayed an RP-LC retention time of 917 s. `CN(C)c1cc(N2CCCC(NC(=O)c3cccnc3)C2)ncn1` (stereo unspecified) displayed an RP-LC retention time of 553 s. Molecule `Cc1cccc2nnc(N3CCC(C(=O)N4CCC(C)CC4)CC3)n12` yielded an RP-LC retention time of 663 s.

Consider `CC(C)C(=O)N1CCCCCCNC(=O)[C@@H]2CCCC[C@@H]21`, for which the RP-LC retention time turned out to be 777 s.

The values above are taken from the METLIN SMRT retention time set (Domingo-Almenara et al. 2019).
